Measurements published in patent US20160082161A1, “DRUG-ELUTING MEDICAL DEVICES” (Ramot at Tel-Aviv University Ltd., priority 2008, published 2016).

Assay: In vitro drug release from drug-eluting composite fibers in PBS
Assay type: physicochemical
Settings: PBS pH 7.4, 37° C.; PDLGA porous coat
Method: The composite drug-eluting fibers were immersed in phosphate buffered saline (PBS) at 37° C. and pH 7.4 for 35 days (FTS) or 37 weeks (paclitaxel), in triplicates, in order to determine the release kinetics from the drug-loaded composite structures. Each test vial contained 2 fibers; each fiber was 5 cm long. The release studies were conducted in closed glass tubes containing 3 ml PBS medium, using a horizontal bath shaker operated at a constant rate of 130 rpm. The medium was removed completely at certain sampling time points, extracted from the aqueous medium as described herein and measured using HPLC. Fresh medium was then introduced. At the end of the experiment the fibers were immersed in methylene chloride and the residual amount of drug was measured.
The drug content of the medium samples was determined using Jasco High Performance Liquid Chromatography (HPLC) equipped with a UV 2075 plus detector and a quaternary gradient pump (PU 2089 plus). […] The paclitaxel content of the medium samples was determined using a reverse phase column (Zorbax ODS 5 μm, inner diameter 4.6 mm, length 150 mm), and kept at 25° C. […]
On the final day of the in vitro trial, residual FTS from composite drug-eluting fibers was measured as follows: the fibers were placed in 1 ml methylene chloride for 10 minutes and the coating shell was dissolved. […]

| Structure (SMILES) | Drug release from porous coat structures (time scale) |
| --- | --- |
| CC(C)=CCCC(C)=CCCC(C)=CCSc1ccccc1C(=O)O (stereo in doubt) [FTS, 2-((2E,6E)-3,7,11-trimethyldodeca-2,6,10-trienylthio)benzoic acid] | relatively fast FTS release within several weeks |
| CC(=O)O[C@H]1C(=O)[C@@]2(C)[C@H]([C@H](OC(=O)c3ccccc3)[C@]3(O)C[C@H](OC(=O)[C@H](O)[C@@H](NC(=O)c4ccccc4)c4ccccc4)C(C)=C1C3(C)C)[C@]1(OC(C)=O)CO[C@@H]1C[C@@H]2O [paclitaxel, Paclitaxel] | slower paclitaxel release within several months |
